Test systems include A549 NSCLC; HCT-15 colon; HOP-62 NSCLC; MALME-3M melanoma; MCF7 breast; OVCAR-8 ovarian; SK-OV-3 ovarian; SNB-19 CNS; SW-620 colon; UO-31 renal.
Assay in all cases: inhibition of tumour cell growth, NCI panel, 48 h

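Assay format: 96-well plates, 48-hour exposure. The concentration for 50% growth inhibition is given as GI50. TGI: concentration producing complete growth inhibition.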

As for `O=C(Nc1ncc(Cc2ccc(Cl)cc2)s1)c1ccc2c(c1)OCCO2`, the GI50 in the assay on A549 NSCLC is 0.0696 µM; in the assay on HCT-15 colon it was 0.0477 µM; with HOP-62 NSCLC, 0.0948 µM; in the assay on MALME-3M melanoma, 0.059 µM; in the assay with MCF7 breast, 0.0661 µM; in the assay with OVCAR-8 ovarian it was 0.17 µM. Besides, the GI50 was 0.183 µM with SK-OV-3 ovarian, 0.08 µM in the assay with SNB-19 CNS, 0.04 µM in the assay on SW-620 colon and 0.0834 µM with UO-31 renal. Moreover, the TGI is above 100 µM in the assay on A549 NSCLC; above 100 µM in the assay with HCT-15 colon; above 41.6 µM in the assay on HOP-62 NSCLC; above 86.5 µM with MALME-3M melanoma; above 100 µM with MCF7 breast; above 100 µM with OVCAR-8 ovarian. Further, the TGI in the assay on SK-OV-3 ovarian is 92.9 µM; in the assay with SNB-19 CNS it was above 92.4 µM; in the assay with SW-620 colon, above 100 µM; in the assay on UO-31 renal, above 100 µM.

Regarding `COc1ccc2cc(C(=O)/C=C/c3ccccc3OC)ccc2c1`, the GI50 with A549 NSCLC is 4.69 µM; with HCT-15 colon, 1.67 µM; with HOP-62 NSCLC, 7.51 µM; in the assay on MALME-3M melanoma, 8.32 µM; in the assay on OVCAR-8 ovarian it was 2.71 µM; with SK-OV-3 ovarian, 12.7 µM. The GI50 in the assay with SNB-19 CNS was 4.37 µM; with SW-620 colon it was 2.81 µM; with UO-31 renal, 5.93 µM. For the same molecule, the TGI in the assay on A549 NSCLC is 11.9 µM; in the assay with HCT-15 colon it was 14.3 µM; in the assay on HOP-62 NSCLC, 25.6 µM; in the assay on MALME-3M melanoma, 67.2 µM; with MCF7 breast it was above 100 µM; in the assay on OVCAR-8 ovarian, 7.34 µM. Also, the TGI is above 100 µM in the assay on SK-OV-3 ovarian, above 51.4 µM with SNB-19 CNS, above 33.2 µM in the assay with SW-620 colon and 18.8 µM in the assay on UO-31 renal.

For the molecule `CCCNNC(=O)c1ccc(CNC(=O)/C=C/c2ccccc2)cc1`, the GI50 in the assay with A549 NSCLC was 0.31 µM; in the assay with HCT-15 colon it was 0.305 µM; in the assay on HOP-62 NSCLC, 0.11 µM; in the assay on MALME-3M melanoma, 0.0475 µM; with MCF7 breast, 0.216 µM; with OVCAR-8 ovarian, 0.114 µM. Moreover, the GI50 in the assay on SK-OV-3 ovarian was 0.134 µM; in the assay with SNB-19 CNS it was 0.314 µM; in the assay with SW-620 colon, 0.125 µM; with UO-31 renal it was 0.0515 µM. Further, the TGI in the assay on A549 NSCLC was above 100 µM; with HCT-15 colon it was above 39 µM; in the assay with HOP-62 NSCLC it was above 100 µM; with MALME-3M melanoma, above 100 µM; in the assay with MCF7 breast, above 100 µM; in the assay on OVCAR-8 ovarian, above 100 µM. Further, the TGI in the assay on SK-OV-3 ovarian is 1.47 µM; with SNB-19 CNS, above 100 µM; in the assay with SW-620 colon it was 1.06 µM; in the assay on UO-31 renal it was 0.771 µM.

For `COc1ccc(/C=C2\CCCC3=C2N=C2SC=NN2C3c2ccc(OC)c(OC)c2)cc1OC` (stereo not drawn), the GI50 with A549 NSCLC was 30.5 µM; with HCT-15 colon, 5.58 µM; in the assay on HOP-62 NSCLC it was 24.3 µM; in the assay on MALME-3M melanoma it was 22.6 µM; with MCF7 breast, 2.42 µM; with OVCAR-8 ovarian, 5.51 µM. Also, the GI50 in the assay with SK-OV-3 ovarian is 56.4 µM; in the assay with SNB-19 CNS, 32.9 µM; in the assay with SW-620 colon it was 10.1 µM; in the assay with UO-31 renal, 15.3 µM. Also, the TGI was above 100 µM in the assay with A549 NSCLC; 60.5 µM in the assay on HCT-15 colon; above 100 µM in the assay with HOP-62 NSCLC; 78.7 µM in the assay on MALME-3M melanoma; above 100 µM with MCF7 breast; above 100 µM with OVCAR-8 ovarian. In addition, the TGI is above 100 µM in the assay on SK-OV-3 ovarian, above 100 µM in the assay on SNB-19 CNS, 39.3 µM in the assay with SW-620 colon and above 100 µM in the assay with UO-31 renal.

Consider `Nc1nn(C(=O)Nc2ccc(Cc3ccccc3)cc2)c2ccccc12`, for which the GI50 in the assay on A549 NSCLC was 12.9 µM; in the assay on HCT-15 colon, 1.08 µM; in the assay on HOP-62 NSCLC it was 13.7 µM; in the assay with MALME-3M melanoma, 19.2 µM; in the assay with MCF7 breast, 0.555 µM; in the assay with OVCAR-8 ovarian it was 21.9 µM. The GI50 in the assay on SK-OV-3 ovarian is 36.9 µM; in the assay with SNB-19 CNS, 22.8 µM; with SW-620 colon, 3.62 µM; with UO-31 renal it was 0.347 µM. Besides, the TGI with A549 NSCLC was 48.6 µM; in the assay on HCT-15 colon, above 100 µM; in the assay with HOP-62 NSCLC, 46.5 µM; in the assay on MALME-3M melanoma, 64.1 µM; in the assay with MCF7 breast, 8.82 µM; with OVCAR-8 ovarian, 63.9 µM. For the same molecule, the TGI in the assay with SK-OV-3 ovarian was above 100 µM; in the assay with SNB-19 CNS, above 100 µM; with SW-620 colon it was 41.5 µM; in the assay with UO-31 renal, above 100 µM.

`COc1ccc2c(c1)CC[C@@H]1[C@@H]2CC[C@]2(C)c3c(cc(C(=O)c4ccccc4)c4sccc34)C[C@@H]12`: the GI50 in the assay with A549 NSCLC, with HCT-15 colon, in the assay on HOP-62 NSCLC, with MALME-3M melanoma, in the assay on MCF7 breast and in the assay with OVCAR-8 ovarian was above 100 µM throughout. Besides, the GI50 with SK-OV-3 ovarian, in the assay on SNB-19 CNS, in the assay on SW-620 colon and in the assay with UO-31 renal was above 100 µM in each case. Further, the TGI with A549 NSCLC, in the assay with HCT-15 colon, in the assay with HOP-62 NSCLC, in the assay on MALME-3M melanoma, in the assay with MCF7 breast and with OVCAR-8 ovarian was above 100 µM in each case. Besides, the TGI in the assay with SK-OV-3 ovarian, in the assay on SNB-19 CNS, with SW-620 colon and in the assay on UO-31 renal was above 100 µM in each case.

In the case of `CSc1ccc2c(c1)C(=O)c1c-2n(CCCN=[N+]=[N-])c(=O)c2cc([N+](=O)[O-])ccc12`, the GI50 with A549 NSCLC was 3.25 µM; in the assay with HCT-15 colon, above 87.1 µM; in the assay with HOP-62 NSCLC it was 0.623 µM; with MCF7 breast, 4.09 µM; in the assay with OVCAR-8 ovarian, 7.97 µM; in the assay with SK-OV-3 ovarian, 0.861 µM. The GI50 is 1.18 µM with SNB-19 CNS, 1.72 µM with SW-620 colon and 1.62 µM with UO-31 renal. Further, the TGI in the assay on A549 NSCLC was above 100 µM; in the assay on HCT-15 colon it was above 100 µM; with HOP-62 NSCLC, 29 µM; with MALME-3M melanoma it was above 38.9 µM; with MCF7 breast, above 100 µM; with OVCAR-8 ovarian it was above 100 µM. The TGI is above 30.5 µM with SK-OV-3 ovarian, above 100 µM in the assay on SNB-19 CNS, above 100 µM in the assay on SW-620 colon and above 100 µM in the assay with UO-31 renal.

The record behind these values is PubChem BioAssay (NCI).
